The values below come from patent US11452717B2, “Small molecule activators of nicotinamide phosphoribosyltransferase (NAMPT) and uses thereof” (Sanford Burnham Prebys Medical Discovery Institute, priority 2017, dated 2022).

Assay [1] deals with human smooth muscle cells. The following applies: serial quantification of the proportion of cells with senescence-associated beta-galactosidase activity; cited from earlier work.
Assay [2] concerns the target NAMPT enzyme (Homo sapiens (Human), UniProt P43490). Put plainly: Enzyme Assay and NMN Detection (NAMPT reaction, fluorescence detection of NMN). In kind it is biochemical. To be noted: NAMPT activation, NMN formation. Summed up:
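NMN formed was read at ex380/em460 after acetophenone/KOH derivatization and formic acid addition, using a same-day calibration curve. Final conditions: NAMPT 16 nM, nicotinamide 5 uM, PRPP 6.25 uM, ATP 120 uM, pyrophosphatase 0.04 U/ml, pH 7.5 HEPES buffer with MgCl2 and TCEP, 2 h at room temperature.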

For assay [3] the following is noted: adult mice, specific deletion of NAMPT; administration of the NAD precursor; cited from earlier work.

Structures are written as SMILES. Where only a bound is given, the exact number is not on record here.

NAMPT enzyme, sequence (P43490 whole entry, species assumed): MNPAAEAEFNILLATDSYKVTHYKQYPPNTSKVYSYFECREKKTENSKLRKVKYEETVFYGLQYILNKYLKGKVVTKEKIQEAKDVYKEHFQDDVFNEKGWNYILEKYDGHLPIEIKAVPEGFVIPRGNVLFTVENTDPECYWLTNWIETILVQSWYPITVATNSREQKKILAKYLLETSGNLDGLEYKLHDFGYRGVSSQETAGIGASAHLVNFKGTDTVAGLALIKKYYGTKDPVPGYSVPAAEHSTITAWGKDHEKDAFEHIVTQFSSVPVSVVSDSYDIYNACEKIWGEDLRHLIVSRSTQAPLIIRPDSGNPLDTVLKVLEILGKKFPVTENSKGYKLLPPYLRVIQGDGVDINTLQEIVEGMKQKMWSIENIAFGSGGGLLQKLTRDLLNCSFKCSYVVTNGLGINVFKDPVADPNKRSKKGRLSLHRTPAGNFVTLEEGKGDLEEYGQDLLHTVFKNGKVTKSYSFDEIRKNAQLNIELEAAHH

`O=C(/C=C/c1cccnc1)NCCCCC1CCN(C(=O)c2ccccc2)CC1` [FK866]: the “senescence in smooth muscle cells” value in assay [1] was “induced premature senescence”.

What is called EC50 is the concentration needed to bring the measured effect to its halfway point. A lower EC50 goes with a more potent agent. The molecule `CC(C)NS(=O)(=O)c1ccc(NC(=O)NCc2ccncc2)cc1` [N-Isopropyl-4-(3-pyridin-4-ylmethyl-ureido)-benzenesulfonamide] gave a concentration giving a half-maximal response (EC50) in assay [2] (Table B-2) of 0.1 to 2 µM.

With `CC(C)N(c1ccc(NC(=O)NCc2ccncc2)cc1)S(=O)(=O)Cc1ccccc1` [N-Isopropyl-C-phenyl-N-[4-(3-pyridin-4-ylmethyl-ureido)-phenyl]-methanesulfonamide], in assay [2] (Table B-2), the EC50 was in the range of 2 to 5 µM.

Take `CC(C)N(c1ccc(NC(=O)NCc2ccncc2)cc1)S(=O)(=O)c1ccccc1` [N-Isopropyl-N-[4-(3-pyridin-4-ylmethyl-ureido)-phenyl]-benzenesulfonamide]: the EC50 in assay [2] (Table B-2) is 2 to 5 µM. The molecule `CN(Cc1ccccc1OC(F)(F)F)S(=O)(=O)c1ccc(NC(=O)NCc2ccncc2)cc1` [N-Methyl-4-(3-pyridin-4-ylmethyl-ureido)-N-(2-trifluoromethoxy-benzyl)-benzenesulfonamide] yielded an EC50 in assay [2] (Table B-2) below 0.1 µM. Same read-out and setting: the same measure for `CNS(=O)(=O)c1ccc(NC(=O)NCc2ccncc2)cc1` [N-Methyl-4-(3-pyridin-4-ylmethyl-ureido)-benzenesulfonamide]: 2 to 5 µM; for `Cc1ccccc1CN(C)S(=O)(=O)c1ccc(NC(=O)NCc2ccncc2)cc1` [N-Methyl-N-(2-methyl-benzyl)-4-(3-pyridin-4-ylmethyl-ureido)-benzenesulfonamide]: below 0.1 µM; for `CN(c1ccc(NC(=O)NCc2ccncc2)cc1)S(=O)(=O)c1ccccc1` [N-Methyl-N-[4-(3-pyridin-4-ylmethyl-ureido)-phenyl]-benzenesulfonamide]: 0.1 to 2 µM.

Turning to `CN(c1ccccc1)S(=O)(=O)Cc1ccc(NC(=O)NCc2ccncc2)cc1` [N-Methyl-N-phenyl-C-[4-(3-pyridin-4-ylmethyl-ureido)-phenyl]-methanesulfonamide], the EC50 in assay [2] (Table B-2) lay within 0.1 to 2 µM. In assay [2] (Table B-2), `O=C(NCc1ccncc1)Nc1ccc(S(=O)(=O)Nc2ccccc2)cc1` [N-Phenyl-4-(3-pyridin-4-ylmethyl-ureido)-benzenesulfonamide] returned an EC50 of 0.1 to 2 µM.

In assay [2] (Table B-1), `O=C(NCc1cn[nH]c1)Nc1ccc(S(=O)(=O)Nc2ccccc2)cc1` [N-Phenyl-4-[3-(1H-pyrazol-4-ylmethyl)-ureido]-benzenesulfonamide] had an EC50 of 0.1 to 2 µM. Molecule `O=C(NCc1ccncc1)Nc1ccc(CS(=O)(=O)Nc2ccccc2)cc1` [N-Phenyl-C-[4-(3-pyridin-4-ylmethyl-ureido)-phenyl]-methanesulfonamide] had an EC50 in assay [2] (Table B-2) of 0.1 to 2 µM. Regarding `CCCNS(=O)(=O)c1ccc(NC(=O)NCc2ccncc2)cc1` [N-Propyl-4-(3-pyridin-4-ylmethyl-ureido)-benzenesulfonamide], in assay [2] (Table B-2), the concentration for a half-maximal effect (EC50) fell in the range of 0.1 to 2 µM.

Molecule `O=C(NCc1ccncc1)Nc1ccc(S(=O)(=O)Nc2ccccn2)cc1` [N-Pyridin-2-yl-4-(3-pyridin-4-ylmethyl-ureido)-benzenesulfonamide] yielded a 50% effective concentration (EC50) in assay [2] (Table B-2) above 20 µM. The molecule `O=C(NCc1ccncc1)Nc1ccc(S(=O)(=O)NCc2ccncc2)cc1` [N-Pyridin-4-ylmethyl-4-(3-pyridin-4-ylmethyl-ureido)-benzenesulfonamide] yielded a 50% effective concentration (EC50) in assay [2] (Table B-2) of 0.1 to 2 µM. Regarding `CN1CCN(CCNS(=O)(=O)c2ccc(NC(=O)NCc3ccncc3)cc2)CC1` [N-[2-(4-Methyl-piperazin-1-yl)-ethyl]-4-(3-pyridin-4-ylmethyl-ureido)-benzenesulfonamide], the concentration giving a half-maximal response (EC50) in assay [2] (Table B-2) fell in the range of 0.1 to 2 µM. As to `O=C(NCc1ccccc1)Nc1ccc(NS(=O)(=O)Cc2ccccc2)cc1` [N-[4-(3-Benzyl-ureido)-phenyl]-C-phenyl-methanesulfonamide], in assay [2] (Table B-2), the EC50 is below 0.1 µM. Turning to `O=C(NCc1cnco1)Nc1ccc(NS(=O)(=O)c2ccccc2)cc1` [N-[4-(3-Oxazol-5-ylmethyl-ureido)-phenyl]-benzenesulfonamide], the EC50 in assay [2] (Table B-1) fell in the range of 0.1 to 2 µM. Molecule `Cc1cccc(CS(=O)(=O)Nc2ccc(NC(=O)NCc3ccncc3)cc2)c1` [N-[4-(3-Pyridin-4-ylmethyl-ureido)-phenyl]-C-m-tolyl-methanesulfonamide] displayed an EC50 in assay [2] (Table B-6) below 0.1 µM.

In assay [2] (Table B-6), `Cc1ccc(CS(=O)(=O)Nc2ccc(NC(=O)NCc3ccncc3)cc2)cc1` [N-[4-(3-Pyridin-4-ylmethyl-ureido)-phenyl]-C-p-tolyl-methanesulfonamide] displayed a concentration for a half-maximal effect (EC50) below 0.1 µM.

As to `O=C(NCc1ccncc1)Nc1ccc(NS(=O)(=O)c2ccccc2)cc1` [N-[4-(3-Pyridin-4-ylmethyl-ureido)-phenyl]-benzenesulfonamide], in assay [2] (Table B-2), the EC50 is below 0.1 µM. With `O=C(NCc1ccncc1)Nc1cccc(S(=O)(=O)NCc2ccccc2)c1` [N-benzyl-3-(3-(pyridin-4-ylmethyl)ureido)benzenesulfonamide], the concentration for a half-maximal effect (EC50) in assay [2] (Table B-2) lay within 5 to 20 µM. Regarding `CN(Cc1ccccc1)C(=O)c1ccc(NC(=O)NCc2ccncc2)cc1` [N-benzyl-N-methyl-4-(3-(pyridin-4-ylmethyl)ureido)benzamide], the concentration for a half-maximal effect (EC50) in assay [2] (Table B-2) lay within 0.1 to 2 µM. The same measure, in the same setting: the same measure for `CCCCNC(=O)c1ccc(NC(=O)NCc2ccncc2)cc1` [N-butyl-4-(3-(pyridin-4-ylmethyl)ureido)benzamide]: 0.1 to 2 µM; for `O=C(NCc1ccncc1)Nc1ccc(C(=O)NC2CCC2)cc1` [N-cyclobutyl-4-(3-(pyridin-4-ylmethyl)ureido)benzamide]: 5 to 20 µM. In the case of `O=C(NCc1ccncc1)Nc1ccc(C(=O)NC2CCCCC2)cc1` [N-cyclohexyl-4-(3-(pyridin-4-ylmethyl)ureido)benzamide], the EC50 in assay [2] (Table B-2) was in the range of 2 to 5 µM. As for `O=C(NCc1ccncc1)Nc1cccc(S(=O)(=O)NC2CCCC2)c1` [N-cyclopentyl-3-(3-(pyridin-4-ylmethyl)ureido)benzenesulfonamide], the EC50 in assay [2] (Table B-2) was above 20 µM.

Molecule `O=C(NCc1ccncc1)Nc1ccc(C(=O)NC2CCCC2)cc1` [N-cyclopentyl-4-(3-(pyridin-4-ylmethyl)ureido)benzamide] came in with a concentration giving a half-maximal response (EC50) in assay [2] (Table B-2) of 5 to 20 µM. Turning to `O=C(NCc1ccncc1)Nc1ccc(S(=O)(=O)NC2CCCC2)cc1` [N-cyclopentyl-4-(3-pyridin-4-ylmethyl-ureido)-benzenesulfonamide], the EC50 in assay [2] (Table B-2) lay in the range of 0.1 to 2 µM. On the same count and under the same terms, next, `CCN(C)C(=O)c1ccc(NC(=O)NCc2ccncc2)cc1` [N-ethyl-N-methyl-4-(3-(pyridin-4-ylmethyl)ureido)benzamide]: 5 to 20 µM; `CC(C)CNC(=O)c1ccc(NC(=O)NCc2ccncc2)cc1` [N-isobutyl-4-(3-(pyridin-4-ylmethyl)ureido)benzamide]: 0.1 to 2 µM; `CN(Cc1ccccc1C(F)(F)F)S(=O)(=O)c1ccc(NC(=O)NCc2ccncc2)cc1` [N-methyl-4-(3-(pyridin-4-ylmethyl)ureido)-N-(2-(trifluoromethyl)benzyl)benzenesulfonamide]: below 0.1 µM. With `Cc1ccc(N(C)C(=O)c2ccc(NC(=O)NCc3ccncc3)cc2)cc1` [N-methyl-4-(3-(pyridin-4-ylmethyl)ureido)-N-(p-tolyl)benzamide], the EC50 in assay [2] (Table B-2) was 5 to 20 µM. Turning to `CN(c1ccc(NC(=O)NCc2ccncc2)cc1)S(=O)(=O)Cc1ccccc1` [N-methyl-C-phenyl-N-[4-(3-pyridin-4-ylmethyl-ureido)-phenyl]-methanesulfonamide], the EC50 in assay [2] (Table B-2) was below 0.1 µM. As to `CCCN(C)C(=O)c1ccc(NC(=O)NCc2ccncc2)cc1` [N-methyl-N-propyl-4-(3-(pyridin-4-ylmethyl)ureido)benzamide], in assay [2] (Table B-2), the EC50 lay within 5 to 20 µM. On to `CC(C)(C)CNS(=O)(=O)c1ccc(NC(=O)NCc2ccncc2)cc1` [N-neopentyl-4-(3-pyridin-4-ylmethyl-ureido)-benzenesulfonamide], for which the concentration giving a half-maximal response (EC50) in assay [2] (Table B-2) was in the range of 0.1 to 2 µM. The same measure, in the same setting: next, `O=C(NCc1ccncc1)Nc1cccc(S(=O)(=O)NCCc2ccccc2)c1` [N-phenethyl-3-(3-(pyridin-4-ylmethyl)ureido)benzenesulfonamide]: above 20 µM; `O=C(NCc1ccncc1)Nc1ccc(C(=O)NCCc2ccccc2)cc1` [N-phenethyl-4-(3-(pyridin-4-ylmethyl)ureido)benzamide]: 0.1 to 2 µM.

Regarding `O=C(NCc1ccncc1)Nc1ccc(C(=O)Nc2ccccc2)cc1` [N-phenyl-4-(3-(pyridin-4-ylmethyl)ureido)benzamide], in assay [2] (Table B-2), the EC50 fell in the range of 2 to 5 µM. `CCCNC(=O)c1ccc(NC(=O)NCc2ccncc2)cc1` [N-propyl-4-(3-(pyridin-4-ylmethyl)ureido)benzamide] displayed an EC50 in assay [2] (Table B-2) of 2 to 5 µM.

Molecule `O=C(NCc1cn[nH]c1)Nc1ccc(NS(=O)(=O)c2ccccc2)cc1` [N-{4-[3-(1H-Pyrazol-4-ylmethyl)-ureido]-phenyl}-benzenesulfonamide] returned an EC50 in assay [2] (Table B-1) below 0.1 µM. In turn, `O=C(NCc1ccncc1)Nc1ccc(S(=O)(=O)N2CCc3cc(C(F)(F)F)ccc3C2)cc1` [Pyridin-4-ylmethyl-3-[4-(6-trifluoromethyl-3,4-dihydro-1H-isoquinoline-2-sulfonyl)-phenyl]-urea] gave an EC50 in assay [2] (Table B-2) of 0.1 to 2 µM. Still for that read-out and setting: the same measure for `O=C(NCc1ccncc1)Nc1ccc(S(=O)(=O)N2CCc3cccc(C(F)(F)F)c3C2)cc1` [Pyridin-4-ylmethyl-3-[4-(8-trifluoromethyl-3,4-dihydro-1H-isoquinoline-2-sulfonyl)-phenyl]-urea]: 0.1 to 2 µM. In assay [2] (Table B-2), `O=C(NCc1ccncc1)Nc1ccc(S(=O)(=O)N2CCCC2)cc1` [Pyridin-4-ylmethyl-3-[4-(pyrrolidine-1-sulfonyl)-phenyl]-urea] yielded an EC50 of 0.1 to 2 µM.

In turn, `O=C(NCc1ccncc1)Nc1ccc(S(=O)(=O)c2nccs2)cc1` [Pyridin-4-ylmethyl-3-[4-(thiazole-2-sulfonyl)-phenyl]-urea] came in with a concentration for a half-maximal effect (EC50) in assay [2] (Table B-6) of 0.1 to 2 µM. For the molecule `NC(=O)c1ccc[n+]([C@@H]2O[C@H](CO)[C@@H](O)[C@H]2O)c1` [nicotinamide riboside], in assay [3], the “exercise performance, mass and strength of muscle” value was “rapidly and uniformly restored”.
